Activity calls are given as the source filed them. No cut-off for these calls is given here.
How the values were obtained:
Mus musculus [1] = experiment: Induction of G-CSF production in C57BL/6J mouse model at 100 mg/kg, sc measured for 24 hrs by ELISA analysis; assay type: functional, organism-based
Mus musculus [2] = experiment: Induction of G-CSF production in C57BL/6J mouse model at 100 mg/kg, ip measured for 24 hrs by ELISA analysis; assay type: functional, organism-based
Mus musculus [3] = experiment: Radioprotective activity in C57BL/6J mouse assessed as survival rate at 100 mg/kg, sc preincubated with compound for 24 hrs followed by total body irradiation with 8.5 Gy and measured after 20 days by Kaplan-meier plot analysis; assay type: functional; details: light or radiation study, 504 h, time 21 day
Mus musculus [4] = experiment: Radioprotective activity in C57BL/6J mouse assessed as survival rate at 100 mg/kg, sc preincubated with compound for 24 hrs followed by total body irradiation with 8.5 Gy and measured after 30 days by Kaplan-meier plot analysis; assay type: functional; details: time 31 day; for survival at 100 mg/kg: Mus musculus, C57BL/6J, light or radiation study, 744 h
[5] = Stability in C57BL/6J mouse whole blood assessed as half-life; assay type: ADME, tissue-based
[6] = Stability in C57BL/6J mouse plasma assessed as half-life; assay type: ADME, cell-free
[7] = Stability in […] human plasma assessed as half-life; assay type: ADME, cell-free

SMILES	Activity (Mus musculus [1])	further results
CC(C)=CCC/C(C)=C/CC/C(C)=C/CC[C@]1(C)CCc2cc(OC(=O)CCC(N)=O)cc(C)c2O1	Active	
CC(C)=CCC/C(C)=C/CC/C(C)=C/CC[C@]1(C)CCc2cc(OCCCCO)cc(C)c2O1	Active	
CC(C)=CCC/C(C)=C/CC/C(C)=C/CC[C@]1(C)CCc2c(C)c(O)c(C)c(C)c2O1		Activity (Mus musculus [2]): inactive
CC(C)=CCC/C(C)=C/CC/C(C)=C/CC[C@]1(C)CCc2cc(OC(=O)c3ccccn3)cc(C)c2O1	Active	
CC(C)=CCC/C(C)=C/CC/C(C)=C/CC[C@]1(C)CCc2cc(OCCC(=O)O)cc(C)c2O1	Active	
CC(C)=CCC/C(C)=C/CC/C(C)=C/CC[C@]1(C)CCc2cc(OC(=O)Cc3cccnc3)cc(C)c2O1	Active	
CC(C)=CCC/C(C)=C/CC/C(C)=C/CC[C@]1(C)CCc2cc(OC(=O)CCCCCC(=O)O)cc(C)c2O1	Active	survival at 100 mg/kg (Mus musculus [3]): 70%; survival at 100 mg/kg (Mus musculus [4]): 90%; half-life [5]: 8.6 min
CC(C)=CCC/C(C)=C/CC/C(C)=C/CC[C@]1(C)CCc2cc(OC(=O)c3ccncc3)cc(C)c2O1	Active	
CNCCOc1cc(C)c2c(c1)CC[C@@](C)(CC/C=C(\C)CC/C=C(\C)CCC=C(C)C)O2	Active	
Cc1cc(O)cc2c1O[C@](C)(CCCC(C)CCCC(C)CCCC(C)C)CC2 (some centres undefined)		Activity (Mus musculus [2]): inactive
CCN(CC)CCOC(=O)c1ccc(N)cc1 [PROCAINE]		half-life [5]: 12.3 min; half-life [6]: 13.2 min; half-life [7]: 0.7 min
CC(C)=CCC/C(C)=C/CC/C(C)=C/CC[C@]1(C)CCc2cc(OC(=O)CCCC(=O)O)cc(C)c2O1	Active	survival at 100 mg/kg (Mus musculus [3]): 70%; half-life [5]: 5.5 min
CC(C)=CCC/C(C)=C/CC/C(C)=C/CC[C@]1(C)CCc2c(C)c(O)cc(C)c2O1	Active	
CC(C)=CCC/C(C)=C/CC/C(C)=C/CC[C@]1(C)CCc2cc(OCC(C)(C)CO)cc(C)c2O1	Active	
CC(C)=CCC/C(C)=C/CC/C(C)=C/CC[C@]1(C)CCc2cc(O)c(C)c(C)c2O1	Active	
CC(C)=CCC/C(C)=C/CC/C(C)=C/CC[C@]1(C)CCc2cc(OCCCC(=O)O)cc(C)c2O1	Active	
CC(C)=CCC/C(C)=C/CC/C(C)=C/CC[C@]1(C)CCc2cc(OC(=O)CCCCC(=O)O)cc(C)c2O1	Active	survival at 100 mg/kg (Mus musculus [3]): 70%; half-life [5]: 2.1 min
CC(C)=CCC/C(C)=C/CC/C(C)=C/CC[C@]1(C)CCc2cc(OCCCCC(=O)O)cc(C)c2O1	Active	

SMILES	Activity (Mus musculus [1])	further results
CC(C)=CCC/C(C)=C/CC/C(C)=C/CC[C@]1(C)CCc2cc(OCC(=O)O)cc(C)c2O1	Active	
CC(=O)Oc1cc(C)c2c(c1)CC[C@@](C)(CC/C=C(\C)CC/C=C(\C)CCC=C(C)C)O2	Active	
Cc1cc(O)c(C)c2c1O[C@](C)(CCCC(C)CCCC(C)CCCC(C)C)CC2 (some centres undefined)		Activity (Mus musculus [2]): inactive
CC(C)=CCC/C(C)=C/CC/C(C)=C/CC[C@]1(C)CCc2cc(OC(=O)C3CCNCC3)cc(C)c2O1	Active	survival at 100 mg/kg (Mus musculus [3]): 70%; survival at 100 mg/kg (Mus musculus [4]): 70%
Cc1c(C)c2c(c(C)c1O)CC[C@@](C)(CCCC(C)CCCC(C)CCCC(C)C)O2 (some centres undefined)		Activity (Mus musculus [2]): inactive
CC(C)=CCC/C(C)=C/CC/C(C)=C/CC[C@]1(C)CCc2cc(OCC(C)(C)C(=O)O)cc(C)c2O1	Active	
CC(C)=CCC/C(C)=C/CC/C(C)=C/CC[C@]1(C)CCc2cc(OC(=O)c3cccnc3)cc(C)c2O1	Active	
CC(C)=CCC/C(C)=C/CC/C(C)=C/CC[C@]1(C)CCc2cc(OCCCCCO)cc(C)c2O1	Active	
CCCC(CCC)C(=O)Oc1cc(C)c2c(c1)CC[C@@](C)(CC/C=C(\C)CC/C=C(\C)CCC=C(C)C)O2	Active	
CC(C)=CCC/C(C)=C/CC/C(C)=C/CC[C@]1(C)CCc2cc(OC(=O)CN(C)C)cc(C)c2O1	Active	survival at 100 mg/kg (Mus musculus [3]): 70%
Cc1c(O)cc2c(c1C)O[C@](C)(CCCC(C)CCCC(C)CCCC(C)C)CC2 (some centres undefined)		Activity (Mus musculus [2]): inactive
CC(C)=CCC/C(C)=C/CC/C(C)=C/CC[C@]1(C)CCc2cc(OCCCO)cc(C)c2O1	Active	survival at 100 mg/kg (Mus musculus [3]): 70%; Activity (Mus musculus [4]): 80%
CC(C)=CCC/C(C)=C/CC/C(C)=C/CC[C@]1(C)CCc2cc(OC(=O)C3CCN(C)CC3)cc(C)c2O1	Active	
COC(=O)CCC(=O)Oc1cc(C)c2c(c1)CC[C@@](C)(CC/C=C(\C)CC/C=C(\C)CCC=C(C)C)O2		half-life [5]: 30.3 min
CC(C)=CCC/C(C)=C/CC/C(C)=C/CC[C@]1(C)CCc2cc(OC(=O)/C=C/C(=O)O)cc(C)c2O1	Active	survival at 100 mg/kg (Mus musculus [3]): 70%; survival at 100 mg/kg (Mus musculus [4]): 90%; half-life [5]: 24.1 min
CC(C)=CCC/C(C)=C/CC/C(C)=C/CC[C@]1(C)CCc2cc(OCCN(C)C)cc(C)c2O1	Active	
CC(C)=CCC/C(C)=C/CC/C(C)=C/CC[C@]1(C)CCc2cc(OCCN)cc(C)c2O1	Active	
CC(C)=CCC/C(C)=C/CC/C(C)=C/CC[C@]1(C)CCc2cc(OC(=O)CC(C)(C)C(=O)O)cc(C)c2O1	Active	survival at 100 mg/kg (Mus musculus [3]): 70%
